Laboratory results taken from patent publication US6500810B2, “Method of regulating expression of adhesion molecules on circulating leukocytes” (Sky High, LLC, priority 1999, dated 2002).

System: CD18
Test: Flow cytometry of CD18 on isolated rat neutrophils stimulated with LTB4
Format: cell-based
Conditions: in vitro
Experimental: Flow cytometric analysis of CD18 complex in rat neutrophils was performed according to standard procedures as described in Vedder & Harlan, J. Clin. Invest., 81:676-682 (1988). Rat neutrophils were freshly isolated from rat whole blood according to the method of Williams et al., J. Leukocyte Biol., 42:455-462 (1987). Isolated neutrophils were washed twice in calcium-free Tyrode's solution containing 0.2% bovine serum albumin (BSA) and suspended in RPMI1630 medium. Neutrophils (5×10^5 cells/tube) were incubated with a monoclonal antibody directed against CD18 (Endogen, Boston, Mass.) at 4° C. for 30 minutes. Excess primary antibody was then removed by washing the platelets or neutrophils in RPMI1630. A goat anti-human gig F(AB′)2 FITC conjugate was used as the secondary antibody at a 1:100 dilution (4° C. for 30 minutes). The stained neutrophils were washed twice with RPMI1630 and finally fixed in 1% paraformaldehyde, and then analyzed by flow cytometry (FACScan, Becton-Dickinson, San Jose, Calif.).

Which “cell surface expression of the adhesion molecule CD18” value does the source give for `CCCCCCCC/C=C\CCCCCCCC(=O)OCC(COP(O)(O)=S)OC` (racemic) [LXR-1035, rac-1-thiophosphate-2-O-methyl-3-oleioyl-glycerol] here?
Its value is “inhibits”.
